Test results as given in patent US5070210A, “Novel ketenimines as intermediates for insecticides” (ICI Americas Inc., priority 1990, dated 1991).

Legend:
Type in all cases: in vivo
[1] = system: Tobacco Budworm [Heliothis virescens (Fabricius)] eggs; assay: Tobacco budworm egg test; settings: 2-day old eggs, percent in solution
Experimental: (§1) The compounds in Tables 1 and 2 above were tested for insecticidal activity using the following testing procedures. LC50 values, based on the results of these tests and calculated according to dosage-mortality curves, are expressed in Table 3.
Tobacco Budworm [Heliothis virescens (Fabricius)]:
(b). Eggs: Paper towel patches of 2-day old eggs of the tobacco budworm were dipped in acetone solutions of the test compound and placed in petri dishes containing a portion of larval rearing medium. Treated eggs were maintained at 78° F. and mortality was recorded after all control eggs had hatched and the young larvae were feeding on the media. Test concentrations ranged from 0.1% downward. The LC-50 value is expressed below in Table 3 under the heading "TBW-E" in terms of percent of the test compound in the solution.

[2] = system: Housefly [Musca domestica]; assay: Housefly insecticidal test; settings: μg per 25 female flies; mortality after 48 hours
Experimental: as §1
Housefly [Musca domestica]:
Test compounds were diluted in acetone and aliquots pipetted onto the bottom of aluminum dishes. To ensure even spreading of the chemical on the bottom of the dishes, 1 ml of acetone containing 0.01% peanut oil was also added to each dish. After all solvents had evaporated, the dishes were placed in circular cardboard cages containing 25 female houseflies, 1-2 days old. The cages were covered on the bottom with cellophane and on the top with tulle netting, and each contained a sugar-water saturated cotton plug for maintenance of the flies. Mortality was recorded after 48 hours. Test levels ranged from 100 μg/25 female houseflies downward. The LC-50 value is expressed below in Table 3 under the heading "HF", in terms of μg of the test compound per 25 female flies.

[3] = system: Cabbage Looper [Trichoplusia ni (Hubner)]; assay: Cabbage looper insecticidal test; settings: second-instar larvae, percent in solution; 3-5 days
Experimental: as §1
Cabbage Looper [Trichoplusia ni (Hubner)]:
Test compounds were diluted in a 50-50 acetone-water solution. Cotyledons of hyzini squash (Calabacita abobrinha), approximately 1×1.5 inches, were immersed in the test solutions for 2-3 seconds and placed on a wire screen to dry. The dried leaves were placed in petri dishes containing a moistened piece of filter paper and infested with 5 second-instar cabbage looper larvae. The dishes were placed in a high humidity chamber. Mortality of the larvae was recorded 3-5 days later. Test concentrations ranged from 0.1% downward. The LC-50 value is expressed below in Table 3 under the heading "CL" in terms of percent of the test compound in solution.

`CC(C)C(=Nc1cc(C(F)(F)F)cc(C(F)(F)F)c1)OCc1cccc(Oc2ccccc2)c1` [Compound 78] was tested, and the “LC50, TBW, E (TBW-E)” value [1] was greater than 0.1%, the “LC50, HF” value [2] was greater than 100 µg and the “LC50, CL” value [3] was 0.0025%.

For `Cc1cc(N=C(OCc2cccc(Oc3ccc(F)cc3)c2)C(C)C)ccc1F` [Compound 236], the “LC50, TBW, E (TBW-E)” value [1] was 0.06%, the “LC50, HF” value [2] was 7 µg and the “LC50, CL” value [3] was 0.0018%.

With `CC(C)C(=Nc1ccc(F)c(Cl)c1)OCc1coc(Cc2ccccc2)c1` [Compound 474] the “LC50, TBW, E (TBW-E)” value [1] was greater than 0.1%, the “LC50, HF” value [2] was 8 µg and the “LC50, CL” value [3] was 0.0012%.

`Cc1ccc(Cl)c(N=C(OCc2cccc(Oc3ccccc3)c2)C(C)C)c1` [Compound 93] was tested, and the “LC50, TBW, E (TBW-E)” value [1] was greater than 0.1%, the “LC50, HF” value [2] was 64 µg and the “LC50, CL” value [3] was 0.005%.

In the case of `Cc1c(COC(=Nc2ccc(F)cc2)C(C)C)cccc1-c1ccccc1` [Compound 458], the “LC50, TBW, E (TBW-E)” value [1] is reported as greater than 0.05%, the “LC50, HF” value [2] is reported as 100 µg and the “LC50, CL” value [3] is reported as 0.007%.

For `CCC(C)C(=Nc1ccc(Cl)cc1)OCc1cccc(Oc2ccccc2)c1` (stereo not drawn) [Compound 26], the “LC50, TBW, E (TBW-E)” value [1] was greater than 0.1%, the “LC50, HF” value [2] was greater than 100 µg and the “LC50, CL” value [3] was 0.007%.

With `CCC(CC)C(=Nc1cccc(C(F)(F)F)c1)OCc1cccc(Oc2ccc(F)cc2)c1` [Compound 291] the “LC50, TBW, E (TBW-E)” value [1] was greater than 0.1%, the “LC50, HF” value [2] was greater than 100 µg and the “LC50, CL” value [3] was 0.004%.

`CC1CC1C(=Nc1ccc(Cl)cc1)OCc1cccc(Oc2ccccc2)c1` (stereo not drawn) [Compound 15] was tested, and the “LC50, TBW, E (TBW-E)” value [1] was greater than 0.1%, the “LC50, HF” value [2] was greater than 100 µg and the “LC50, CL” value [3] was 0.025%.

In the case of `CC(Br)C(=Nc1ccc(F)c(Cl)c1)OCc1cccc(Oc2ccc(F)cc2)c1` (stereo not drawn) [Compound 305], the “LC50, TBW, E (TBW-E)” value [1] is reported as greater than 0.1%, the “LC50, HF” value [2] is reported as greater than 100 µg and the “LC50, CL” value [3] is reported as 0.048%.

For `COc1ccc(N=C(OCc2cccc(Oc3ccc(F)cc3)c2)C(C)C)cc1Cl` [Compound 110], the “LC50, TBW, E (TBW-E)” value [1] was 0.04%, the “LC50, HF” value [2] was 26 µg and the “LC50, CL” value [3] was 0.007%.

With `CC(C)C(=Nc1c(Cl)cc(Cl)cc1Cl)OCc1cccc(Oc2ccccc2)c1` [Compound 19] the “LC50, TBW, E (TBW-E)” value [1] was greater than 0.1%, the “LC50, HF” value [2] was greater than 100 µg and the “LC50, CL” value [3] was less than 0.1%.

`Cc1cc(Cl)ccc1N=C(OCc1cccc(Oc2ccccc2)c1)C(C)(C)C` [Compound 109] was tested, and the “LC50, TBW, E (TBW-E)” value [1] was greater than 0.1%, the “LC50, HF” value [2] was greater than 100 µg and the “LC50, CL” value [3] was 0.002%.

With `CC(C)C(=Nc1cc(F)c(F)cc1F)OCc1cccc(Oc2ccccc2)c1` [Compound 58] the “LC50, TBW, E (TBW-E)” value [1] was 0.06%, the “LC50, HF” value [2] was 16 µg and the “LC50, CL” value [3] was 0.002%.

With `COc1ccc(OC)c(N=C(OCc2cccc(Oc3ccccc3)c2)C(C)C)c1Cl` [Compound 100] the “LC50, TBW, E (TBW-E)” value [1] was greater than 0.1%, the “LC50, HF” value [2] was 100 µg and the “LC50, CL” value [3] was 0.05%.

`Cc1ccc(N=C(OCc2cccc(Oc3ccccc3)c2)C(C)C)cc1C` [Compound 158] was tested, and the “LC50, TBW, E (TBW-E)” value [1] was 0.1%, the “LC50, HF” value [2] was 9 µg and the “LC50, CL” value [3] was 0.003%.

With `CCCC(=Nc1ccc(OC)cc1)OCc1cccc(Oc2ccccc2)c1` [Compound 184] the “LC50, TBW, E (TBW-E)” value [1] was greater than 0.1%, the “LC50, HF” value [2] was 61 µg and the “LC50, CL” value [3] was 0.024%.

For `CC(C)C(=Nc1ccc(F)c(F)c1)OCc1cccc(Oc2ccc(F)cc2F)c1` [Compound 214], the “LC50, TBW, E (TBW-E)” value [1] was 0.04%, the “LC50, HF” value [2] was 19 µg and the “LC50, CL” value [3] was 0.0003%.

For `CC(C)C(=Nc1ccc(C#N)c(F)c1)OCc1cccc(Oc2ccc(F)cc2)c1` [Compound 222], the “LC50, TBW, E (TBW-E)” value [1] was greater than 0.1%, the “LC50, HF” value [2] was 32 µg and the “LC50, CL” value [3] was 0.0015%.

For `CC(C)C(=Nc1cccc(C(F)(F)F)c1)OCc1ccc(OCc2ccccc2)cc1` [Compound 476], the “LC50, TBW, E (TBW-E)” value [1] was greater than 0.1%, the “LC50, HF” value [2] was greater than 100 µg and the “LC50, CL” value [3] was 0.015%.

With `CC(C)C(=Nc1cccc(C#N)c1)OCc1cccc(Oc2ccccc2)c1` [Compound 126] the “LC50, TBW, E (TBW-E)” value [1] was greater than 0.1%, the “LC50, HF” value [2] was greater than 100 µg and the “LC50, CL” value [3] was 0.08%.

In the case of `CC(C)(C)C(=Nc1ccc(Cl)c([N+](=O)[O-])c1)OCc1cccc(Oc2ccccc2)c1` [Compound 105], the “LC50, TBW, E (TBW-E)” value [1] is reported as greater than 0.1%, the “LC50, HF” value [2] is reported as greater than 100 µg and the “LC50, CL” value [3] is reported as 0.018%.

`COCc1c(F)c(F)c(COC(=Nc2ccc3c(c2)OCO3)C(C)C)c(F)c1F` [Compound 501] was tested, and the “LC50, TBW, E (TBW-E)” value [1] was greater than 0.1%, the “LC50, HF” value [2] was 20 µg and the “LC50, CL” value [3] was 0.00045%.

With `CC(C)C(=Nc1ccc2c(c1)OCO2)OCc1cccc(Oc2ccc(C(F)(F)F)cc2)c1` [Compound 246] the “LC50, TBW, E (TBW-E)” value [1] was greater than 0.1%, the “LC50, HF” value [2] was 60 µg and the “LC50, CL” value [3] was 0.004%.

For `CCOc1cccc(N=C(OCc2cccc(Oc3ccccc3)c2)C(C)C)c1` [Compound 171], the “LC50, TBW, E (TBW-E)” value [1] was greater than 0.1%, the “LC50, HF” value [2] was 80 µg and the “LC50, CL” value [3] was 0.01%.

In the case of `CC(C)C(=Nc1ccc(F)c(Cl)c1)OCc1ccc(Cl)c(Oc2ccc(F)cc2)c1` [Compound 448], the “LC50, TBW, E (TBW-E)” value [1] is reported as 0.03%, the “LC50, HF” value [2] is reported as 16 µg and the “LC50, CL” value [3] is reported as 0.003%.

In the case of `Clc1cccc(N=C(OCc2cccc(Oc3ccccc3)c2)C2CC2)c1` [Compound 24], the “LC50, TBW, E (TBW-E)” value [1] is reported as 0.1%, the “LC50, HF” value [2] is reported as 25 µg and the “LC50, CL” value [3] is reported as 0.005%.

In the case of `CC(C)C(=Nc1ccc(F)c(Cl)c1)OCc1ccc(OCc2ccc(F)cc2)cc1` [Compound 487], the “LC50, TBW, E (TBW-E)” value [1] is reported as greater than 0.1%, the “LC50, HF” value [2] is reported as greater than 100 µg and the “LC50, CL” value [3] is reported as 0.023%.

For `Cc1cccc(N=C(OCc2cccc(Oc3ccccc3)c2)C(C)C)c1C` [Compound 148], the “LC50, TBW, E (TBW-E)” value [1] was 0.025%, the “LC50, HF” value [2] was 18 µg and the “LC50, CL” value [3] was 0.0025%.

For `CCC(C)C(=Nc1ccc(Cl)c(Cl)c1)OCc1cccc(Oc2ccccc2)c1` (stereo not drawn) [Compound 39], the “LC50, TBW, E (TBW-E)” value [1] was greater than 0.1%, the “LC50, HF” value [2] was greater than 100 µg and the “LC50, CL” value [3] was 0.0023%.

For `COc1ccc(C)cc1N=C(OCc1cccc(Oc2ccccc2)c1)C(C)C` [Compound 150], the “LC50, TBW, E (TBW-E)” value [1] was greater than 0.1%, the “LC50, HF” value [2] was 89 µg and the “LC50, CL” value [3] was 0.01%.

In the case of `CC(C)C(=Nc1ccc(F)cc1)OCc1cccc(Oc2cccc(Cl)c2)c1` [Compound 205], the “LC50, TBW, E (TBW-E)” value [1] is reported as greater than 0.1%, the “LC50, HF” value [2] is reported as 50 µg and the “LC50, CL” value [3] is reported as 0.004%.

For `CC(C)C(=Nc1cccc(C(F)(F)F)c1)OCc1cccc(Oc2ccncc2)c1` [Compound 469], the “LC50, TBW, E (TBW-E)” value [1] was greater than 0.1%, the “LC50, HF” value [2] was 40 µg and the “LC50, CL” value [3] was 0.02%.

In the case of `CCC(=Nc1ccc(F)c(Cl)c1)OCc1cccc(Oc2ccc(F)cc2)c1` [Compound 115], the “LC50, TBW, E (TBW-E)” value [1] is reported as 0.075%, the “LC50, HF” value [2] is reported as 10 µg and the “LC50, CL” value [3] is reported as 0.0012%.

For `CC(C)C(=Nc1ccc(F)c(Cl)c1)OCc1cccc(Oc2ccc(C(F)(F)F)cc2)c1` [Compound 247], the “LC50, TBW, E (TBW-E)” value [1] was greater than 0.1%, the “LC50, HF” value [2] was greater than 100 µg and the “LC50, CL” value [3] was 0.009%.

For `CC(C)C(=Nc1ccc2c(c1)OC(C)(C)O2)OCc1cccc(Oc2ccc(Cl)cc2)c1` [Compound 241], the “LC50, TBW, E (TBW-E)” value [1] was greater than 0.1%, the “LC50, HF” value [2] was greater than 100 µg and the “LC50, CL” value [3] was 0.0004%.

`C=CCOc1cccc(COC(=Nc2cccc(C(F)(F)F)c2)C(C)C)c1` [Compound 480] was tested, and the “LC50, TBW, E (TBW-E)” value [1] was greater than 0.1%, the “LC50, HF” value [2] was greater than 100 µg and the “LC50, CL” value [3] was 0.01%.

For `C=CCOc1cccc(COC(=Nc2ccc(Cl)c(Cl)c2)C(C)C)c1` [Compound 481], the “LC50, TBW, E (TBW-E)” value [1] was greater than 0.1%, the “LC50, HF” value [2] was greater than 100 µg and the “LC50, CL” value [3] was 0.015%.

In the case of `CC(C)C(=Nc1ccc(F)c(Cl)c1)OCc1cc(F)cc(Oc2ccc(F)cc2)c1` [Compound 327], the “LC50, TBW, E (TBW-E)” value [1] is reported as greater than 0.1%, the “LC50, HF” value [2] is reported as greater than 100 µg and the “LC50, CL” value [3] is reported as 0.005%.
